Patent publication US9095624B2 (priority 2011, dated 2015)

Experiments:
[1] = test system: C57Black/6J mice with B16-F1 melanoma; assay: Photodynamic therapy, B16-F1 melanoma; format: in vivo
Method: (§1) In order to evaluate the potential utility of MTP for enhancing the therapeutic efficacy of a drug that requires localization within the cell nucleus to be effective, photodynamic therapy (PDT) studies were performed in three different murine subcutaneous tumor models, with PDT initiated three hours after photosensitizer (PS) injection. The comparative efficacy of photodynamic therapy with bacteriochlorin p conjugated with DTox-HMP-NLS-αMSH MTP and free bacteriochlorin p is reported in FIGS. 11A-D.
The first experiment was performed in C57Black/6J mice with B16-F1 melanoma. FIG. 11A reports tumor growth, mean±SEM, with injection and illumination cycles indicated with arrows. The average tumor volumes are shown up to the last day when all animals were alive in a group. FIG. 11B provides the Kaplan-Meier survival curve. […] The median survival for mice receiving PS-MTP conjugate was 32.0±1.3 days compared with 17.0±1.5 days for the control group and 20.0±5.5 days for the bacteriochlorin group (FIG. 11B). The difference in survival between PS-MTP and each of two control groups was significant (p<0.01).

[2] = test system: DBA/2 mice with Cloudman S91 melanoma; assay: Photodynamic therapy, Cloudman S91 melanoma; format: in vivo; details: PDT
Method: as §1
The second experiment utilized DBA/2 mice with Cloudman S91 melanoma. FIG. 11C reports tumor growth, mean±SEM with the injection and illumination cycles being indicated with arrows. The average tumor volumes are shown up to the last day when all animals were alive in a group. FIG. 11D provides the Kaplan-Meier survival curve. […] The median survival for mice receiving PS-MTP conjugate was 56.0±18.6 days compared with 21.0±0.7 days for the control group and 31.0±1.3 days for the bacteriochlorin group (FIG. 11D).

[3] = test system: Balb/c ByJIco-nu/nu mice with A431 human epidermoid carcinoma xenografts; details: mouse, in vivo

Compound	median survival ([1]; PDT) [days]	inhibition in tumor growth ([1]; PDT three hours after photosensitizer injection)	median survival [2] [days]	animals remaining alive at the end of the observation period [3] [%]
bacteriochlorin p	20.0 ± 5.5	no significant effect	31.0 ± 1.3	–
C=Cc1c(C)c2cc3nc(c(CC(=O)O)c4[nH]c(cc5nc(cc1[nH]2)C(C)=C5CC)c(C)c4C(=O)O)[C@@H](CCC(=O)O)[C@@H]3C [chlorin e6]	–	–	–	20
